Laboratory results: article PMC11643690, “Chelating Properties of N6O-Donors Toward Cu(II) Ions: Speciation in Aqueous Environments and Catalytic Activity of the Dinuclear Complexes” (Molecules, 2024)

Key:
[1] = Potentiometric titration of the free ligand (protonation constants); type: physicochemical
Experimental: As far as the ligand behavior in aqueous solutions is concerned, the speciation curves were obtained from the titration of an L-CH3 solution (0.1 mM in DMSO 5% (v/v)/H2O (HCl/KCl); initial pH = 2.7) by stepwise addition of NaOH 0.1 M. The distribution curves and the acid association constants were then calculated (Figure 1 and Table 1).
At low pH, L-CH3 has seven protic groups that can be deprotonated upon pH increase: besides the phenolic OH, two tertiary amines and four pyridines. From the titration, six logKa could be successfully obtained. The highest one, logKa = 9.75, is related to the phenolic group. The next constants are ascribed to the nitrogens of the tertiary amines and of the Pyr groups, although they are difficult to unambiguously correlate with a specific functional group. […] The potentiometric titration was carried out till pH 9.5 to avoid the precipitation of the ligand in the basic environment.
Potentiometric measurements were carried out using the Metrohm pH-meter system (Herisau, Switzerland) with a Metrohm semi-micro combination electrode at 25 °C, calibrated in a hydrogen ion concentration using HCl. The ligands were dissolved in DMSO (5% v/v/H2O (HCl/KCl)) in order to obtain a concentration of 1 mM. The titrant (KOH 0.1M) was added with a micrometric syringe at 298 K in the pH range of 2.5–11.5 in an argon atmosphere. The stability constants and stoichiometry of the complexes were calculated using the titration curves and the SUPERQUAD and HYPERQUAD [47, 48].

[2] = UV–Vis titration of HL-CH3 with Mn(ClO4)2, binding constant; conditions: Mn(II); 0.1 mM ligand, 5% v/v MeOH/BBS 50 mM, pH 7.4
Experimental: To evaluate the selectivity of these ligands towards copper, the same titrations were performed with different metal salts: Fe(ClO4)2, Mn(ClO4)2, and Zn(ClO4)2, monitoring the methyl-substituted ligand (Figures S39–S41). These metal ions were chosen because they are also divalent and common in biological matrixes.
For the determination of the binding constant between metals and ligands, a solution of the latter was titrated with 0.2 eq of metal for each addition. The titrating solutions were 10 mM and 100 μM for Cu(ClO4)2 versus 0.1 mM and 1 μM for the ligands in 5% v/v MeOH/BBS (50 mM, pH 7.4), respectively. […] The absorbance variation was monitored from 200 nm to 800 nm at 25 °C. […]
UV-vis spectra of ligands and complexes were recorded in a quartz cuvette, with 1 cm of optical path. […]
The titrating solutions were 10 mM and 100 μM for Cu(ClO4)2 versus 0.1 mM and 1 μM for the ligands in 5% v/v MeOH/BBS (50 mM, pH 7.4), respectively. […] The absorbance variation was monitored from 200 nm to 800 nm with a Varian Cary 50 instrument, thermostated at 25 °C.
The binding constants were then determined by nonlinear regression analysis of the plot “ΔAbs/b vs Cu(II) concentration” (Equation 7 ), according to K. Connors, The Measurement of Molecular Complex Stability, Madison, Wisconsin, Wiley, 1987[5]. […]
ΔA: absorbance at a certain wavelength. […]

[3] = overall protonation constant, DMSO 5% (v/v)/H2O (HCl/KCl), 25 °C

## Cc1cc(CN(Cc2ccccn2)Cc2ccccn2)c(O)c(CN(Cc2ccccn2)Cc2ccccn2)c1 [HL-CH3, 2,6-bis[(bis(2-pyridylmethyl)amino)methyl]-4-methylphenol]
[1]; [3]
  logβi, L^− + 2H^+ ⇌ [H2L]^+: 16.57 ± 0.01
  logβi, L^− + 3H^+ ⇌ [H3L]^2+: 21.56 ± 0.01
  logβi, L^− + 4H^+ ⇌ [H4L]^3+: 25.27 ± 0.01
  logβi, L^− + 5H^+ ⇌ [H5L]^4+: 27.83 ± 0.02
  logβi, L^− + 6H^+ ⇌ [H6L]^5+: 29.60 ± 0.11
  logβi, L^− + H^+ ⇌ HL: 9.75 ± 0.01
[1]; stepwise constant
  logKa, HL + H^+ ⇌ [H2L]^+: 6.82
  logKa, [H2L]^+ + H^+ ⇌ [H3L]^2+: 4.99
  logKa, [H3L]^2+ + H^+ ⇌ [H4L]^3+: 3.71
  logKa, [H4L]^3+ + H^+ ⇌ [H5L]^4+: 2.56
  logKa, [H5L]^4+ + H^+ ⇌ [H6L]^5+: 1.77
[1]; stepwise constant, phenolic group
  logKa, L + H^+ ⇌ HL: 9.75
[2]
  Kbind: 6.12 × 10^7 M^−2
  log(Kbind): 7.78
